From patent US20230257372A1 (CHONG KUN DANG PHARMACEUTICAL CORP., priority 2020, published 2023)
Read-outs that look alike come from different tables or passages of the source.

Tests used:
[1] = target: T1, human recombinant HDAC6 (Homo sapiens, UniProt Q9UBN7); test: HDAC6 enzyme activity inhibition (HDAC Fluorimetric Drug Discovery Kit); assay type: biochemical
T1 construct: purchased Calbiochem Inc. 382180
T1 sequence (Q9UBN7 1-1215): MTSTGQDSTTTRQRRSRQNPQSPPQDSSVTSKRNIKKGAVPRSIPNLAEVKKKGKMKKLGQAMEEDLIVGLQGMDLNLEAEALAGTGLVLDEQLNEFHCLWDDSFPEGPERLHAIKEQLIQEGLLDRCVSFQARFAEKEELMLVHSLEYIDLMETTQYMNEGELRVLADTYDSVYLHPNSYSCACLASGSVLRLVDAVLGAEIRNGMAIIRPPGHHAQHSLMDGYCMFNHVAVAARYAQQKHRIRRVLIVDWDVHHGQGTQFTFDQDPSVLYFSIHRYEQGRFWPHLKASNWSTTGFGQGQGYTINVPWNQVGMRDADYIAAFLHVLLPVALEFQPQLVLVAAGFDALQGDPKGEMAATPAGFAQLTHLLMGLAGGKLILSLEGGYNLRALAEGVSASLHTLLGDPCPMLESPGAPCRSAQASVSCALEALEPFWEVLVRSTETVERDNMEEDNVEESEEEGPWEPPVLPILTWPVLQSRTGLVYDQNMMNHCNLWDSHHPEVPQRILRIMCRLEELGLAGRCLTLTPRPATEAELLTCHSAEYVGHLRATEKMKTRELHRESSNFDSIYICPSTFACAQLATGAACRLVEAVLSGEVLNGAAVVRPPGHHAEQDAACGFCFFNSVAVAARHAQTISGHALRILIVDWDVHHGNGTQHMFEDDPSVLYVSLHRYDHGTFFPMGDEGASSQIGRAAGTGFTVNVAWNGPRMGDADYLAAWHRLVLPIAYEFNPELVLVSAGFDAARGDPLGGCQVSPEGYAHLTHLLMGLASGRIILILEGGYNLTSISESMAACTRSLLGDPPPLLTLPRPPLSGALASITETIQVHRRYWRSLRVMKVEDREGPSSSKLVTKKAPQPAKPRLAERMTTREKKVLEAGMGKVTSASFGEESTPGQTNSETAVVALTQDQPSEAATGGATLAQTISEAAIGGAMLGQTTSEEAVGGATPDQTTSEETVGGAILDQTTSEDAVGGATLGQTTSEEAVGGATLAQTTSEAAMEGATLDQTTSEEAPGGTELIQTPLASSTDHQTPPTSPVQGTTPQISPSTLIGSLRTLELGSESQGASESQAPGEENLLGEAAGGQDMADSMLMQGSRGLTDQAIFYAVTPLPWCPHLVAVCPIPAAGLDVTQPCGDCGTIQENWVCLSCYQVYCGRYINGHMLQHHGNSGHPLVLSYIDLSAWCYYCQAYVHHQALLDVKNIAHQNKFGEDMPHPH
Outline: (§1)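 Five-fold compound dilutions incubated with […] recombinant enzyme and 10 μM fluorogenic Fluor de Lys substrate, 60 min at 30° C. Fluor de Lys Developer II then added for 30 min to generate the fluorescent read-out.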

[2] = target: T2, human recombinant HDAC1 (Homo sapiens, UniProt Q13547); test: HDAC1 enzyme activity inhibition (HDAC Fluorimetric Drug Discovery Kit); assay type: biochemical; conditions: read-out: HDAC1
T2 construct: purchased Enzo Life Science, Inc. BML-SE456
Outline: as §1

[3] = human recombinant HDAC6, IC50 calculated with GraphPad Prism
[4] = human recombinant HDAC1, IC50 calculated with GraphPad Prism
[5] = human recombinant HDAC6, same protocol as HDAC1
[6] = human recombinant HDAC1, Fluor de Lys substrate, 30° C. 60 minutes

T2 sequence (Q13547 whole entry): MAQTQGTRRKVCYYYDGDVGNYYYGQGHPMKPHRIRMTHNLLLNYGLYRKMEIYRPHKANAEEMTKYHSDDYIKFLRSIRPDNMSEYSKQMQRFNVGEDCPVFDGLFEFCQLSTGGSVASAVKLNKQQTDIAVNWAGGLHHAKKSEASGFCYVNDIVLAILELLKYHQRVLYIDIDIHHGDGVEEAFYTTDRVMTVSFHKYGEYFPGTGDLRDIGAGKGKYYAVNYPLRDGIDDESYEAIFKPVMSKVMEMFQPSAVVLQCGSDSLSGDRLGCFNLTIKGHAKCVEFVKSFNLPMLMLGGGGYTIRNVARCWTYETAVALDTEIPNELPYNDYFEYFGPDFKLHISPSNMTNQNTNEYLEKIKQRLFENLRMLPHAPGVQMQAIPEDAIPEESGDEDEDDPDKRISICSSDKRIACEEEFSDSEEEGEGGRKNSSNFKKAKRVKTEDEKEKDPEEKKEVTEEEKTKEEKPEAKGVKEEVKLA

Structure (SMILES)	HDAC6 selectivity (fold) ([1]; HDAC1 IC50 / HDAC6 IC50)	IC50 [1, 3] [nM]	IC50 [2, 4] [nM]	HDAC6 selectivity (fold) ([1]; HDAC6 over HDAC1)	IC50 [1, 5] [nM]	IC50 [2, 6] [nM]
CN(C)CC(=O)Nc1cccc(-c2cn(Cc3ccc(-c4nnc(C(F)F)o4)cc3F)nn2)c1 [Compound 4352, N-(3-(1-(4-(5-(difluoromethyl)-1,3,4-oxadiazol-2-yl)-2-fluorobenzyl)-1H-1,2,3-triazol-4-yl)phenyl)-2-(dimethylamino)acetamide]	1562	33.2	> 50000			
FC(F)c1nnc(-c2ccc(Cn3cc(-c4ccc(CN5CCCC5)cc4)nn3)nc2)o1 [Compound 4560, 2-(difluoromethyl)-5-(6-((4-(4-(pyrrolidin-1-ylmethyl)phenyl)-1H-1,2,3-triazol-1-yl)methyl)pyridin-3-yl)-1,3,4-oxadiazole]				4672	10.7	> 50000
FC(F)c1nnc(-c2ccc(Cn3cc(C4CCN(C5CC6(COC6)C5)CC4)nn3)nc2)o1 [Compound 3810, 2-(6-((4-(1-(2-oxaspiro[3.3]heptan-6-yl)piperidin-4-yl)-1H-1,2,3-triazol-1-yl)methyl)pyridin-3-yl)-5-(difluoromethyl)-1,3,4-oxadiazole]	178	280	> 50000			
CN1Cc2ccc(-c3cn(Cc4ccc(-c5nnc(C(F)F)o5)cc4)nn3)cc2C1 [Compound 4513, 2-(difluoromethyl)-5-(4-((4-(2-methylisoindolin-5-yl)-1H-1,2,3-triazol-1-yl)methyl)phenyl)-1,3,4-oxadiazole]				495	101	> 50000
CCC(F)(CC)CN1CCC(c2cccc(-c3cn(Cc4ccc(-c5nnc(C(F)F)o5)cc4F)nn3)c2)CC1 [Compound 4350, 2-(difluoromethyl)-5-(4-((4-(3-(1-(2-ethyl-2-fluorobutyl)piperidin-4-yl)phenyl)-1H-1,2,3-triazol-1-yl)methyl)-3-fluorophenyl)-1,3,4-oxadiazole]	82	605	> 50000			
Fc1cc(-c2nnc(C(F)F)o2)ccc1Cn1cc(-c2ccc(F)c(N3CCN(C4CCC4)CC3)c2)nn1 [Compound 4426, 2-(4-((4-(3-(4-cyclobutylpiperazin-1-yl)-4-fluorophenyl)-1H-1,2,3-triazol-1-yl)methyl)-3-fluorophenyl)-5-(difluoromethyl)-1,3,4-oxadiazole]	334	150	> 50000			
CC(C)(F)C(=O)N1CCC(c2cn(Cc3ccc(-c4nnc(C(F)F)o4)cn3)nn2)CC1 [Compound 3894]	498	100	> 50000			
FC(F)c1nnc(-c2ccc(Cn3cc(-c4cccc(N5C[C@@H]6C[C@H]5CN6)c4)nn3)cc2)o1 [Compound 4317, 2-(4-((4-(3-((1S,4S)-2,5-diazabicyclo[2.2.1]heptan-2-yl)phenyl)-1H-1,2,3-triazol-1-yl)methyl)phenyl)-5-(difluoromethyl)-1,3,4-oxadiazole]	598	83.6	> 50000			
CCN1CC(c2cccc(-c3cn(Cc4ccc(-c5nnc(C(F)F)o5)cn4)nn3)c2)C1 [Compound 4502, 2-(difluoromethyl)-5-(6-((4-(3-(1-ethylazetidin-3-yl)phenyl)-1H-1,2,3-triazol-1-yl)methyl)pyridin-3-yl)-1,3,4-oxadiazole]				3571	14.2	> 50000
Fc1cc(-c2nnc(C(F)F)o2)ccc1Cn1cc(-c2ccc(F)c(N3CCN(C4COC4)CC3)c2)nn1 [Compound 4427, 2-(difluoromethyl)-5-(3-fluoro-4-((4-(4-fluoro-3-(4-(oxetan-3-yl)piperazin-1-yl)phenyl)-1H-1,2,3-triazol-1-yl)methyl)phenyl)-1,3,4-oxadiazole]	548	91.2	> 50000			
COC(=O)N1CCC[C@H]1c1cn(Cc2ccc(-c3nnc(C(F)F)o3)cn2)nn1 [Compound 4028, methyl (S)-2-(1-((5-(5-(difluoromethyl)-1,3,4-oxadiazol-2-yl)pyridin-2-yl)methyl)-1H-1,2,3-triazol-4-yl)pyrrolidin-1-carboxylate]	238	210	> 50000			
CC(C)N1CCN(c2ccc(F)c(-c3cn(Cc4ccc(-c5nnc(C(F)F)o5)cc4)nn3)c2)CC1 [Compound 4453, 2-(difluoromethyl)-5-(4-((4-(2-fluoro-5-(4-isopropylpiperazin-1-yl)phenyl)-1H-1,2,3-triazol-1-yl)methyl)phenyl)-1,3,4-oxadiazole]	3144	15.9	> 50000			
CN(C)CC(=O)Nc1cccc(-c2cn(Cc3ccc(-c4nnc(C(F)F)o4)cn3)nn2)c1 [Compound 4230, N-(3-(1-((5-(5-(difluoromethyl)-1,3,4-oxadiazol-2-yl)pyridin-2-yl)methyl)-1H-1,2,3-triazol-4-yl)phenyl)-2-(dimethylamino)acetamide]	2173	23	> 50000			

Further lines, results first:

HDAC6 selectivity (fold) ([1]; HDAC1 IC50 / HDAC6 IC50)	IC50 [1, 3] [nM]	IC50 [2, 4] [nM]	HDAC6 selectivity (fold) ([1]; HDAC6 over HDAC1)	IC50 [1, 5] [nM]	IC50 [2, 6] [nM]	Structure (SMILES)
846	59.1	> 50000				CC(C)(F)C(=O)Nc1cccc(-c2cn(Cc3ccc(-c4nnc(C(F)F)o4)cc3)nn2)c1 [Compound 4328, N-(3-(1-(4-(5-(difluoromethyl)-1,3,4-oxadiazol-2-yl)benzyl)-1H-1,2,3-triazol-4-yl)phenyl)-2-fluoro-2-methylpropanamide]
559	89.4	> 50000				CN1CCN(c2cc(-c3cn(Cc4ccc(-c5nnc(C(F)F)o5)cc4F)nn3)ccc2F)CC1 [Compound 4424, 2-(difluoromethyl)-5-(3-fluoro-4-((4-(4-fluoro-3-(4-methylpiperazin-1-yl)phenyl)-1H-1,2,3-triazol-1-yl)methyl)phenyl)-1,3,4-oxadiazol]
			1089	45.9	> 50000	Fc1cc(-c2nnc(C(F)F)o2)cnc1Cn1cc(-c2ccc3cc[nH]c3c2)nn1 [Compound 18918, 2-(6-((4-(1H-indol-6-yl)-1H-1,2,3-triazol-1-yl)methyl)-5-fluoropyridin-3-yl)-5-(difluoromethyl)-1,3,4-oxadiazole]
1742	28.7	> 50000				CN(C)CCC(=O)Nc1cccc(-c2cn(Cc3ccc(-c4nnc(C(F)F)o4)cn3)nn2)c1 [Compound 4229, N-(3-(1-((5-(5-(difluoromethyl)-1,3,4-oxadiazol-2-yl)pyridin-2-yl)methyl)-1H-1,2,3-triazol-4-yl)phenyl)-3-(dimethylamino)propanamide]
			1126	44.4	> 50000	Fc1cc(-c2nnc(C(F)F)o2)ccc1Cn1cc(-c2cccc(Br)n2)nn1 [Compound 17263, 2-(4-((4-(6-bromopyridin-2-yl)-1H-1,2,3-triazol-1-yl)methyl)-3-fluorophenyl)-5-(difluoromethyl)-1,3,4-oxadiazole]
			274	182	> 50000	CN1CCN(Cc2ccccc2-c2cn(Cc3ccc(-c4nnc(C(F)F)o4)cc3F)nn2)CC1 [Compound 4587, 2-(difluoromethyl)-5-(3-fluoro-4-((4-(2-((4-methylpiperazin-1-yl)methyl)phenyl)-1H-1,2,3-triazol-1-yl)methyl)phenyl)-1,3,4-oxadiazole]
			2415	20.7	> 50000	Fc1cc(-c2nnc(C(F)F)o2)ccc1Cn1cc(-c2ccc(CN3CC[C@H](F)C3)cc2)nn1 [Compound 4606, (S)-2-(difluoromethyl)-5-(3-fluoro-4-((4-(4-((3-fluoropyrrolidin-1-yl)methyl)phenyl)-1H-1,2,3-triazol-1-yl)methyl)phenyl)-1,3,4-oxadiazole]
